Results on twelve compounds are retold here after patent US4104390A, “Thieno [2,3-c] and [3,2-c] pyridines” (Parcor, priority 1976, dated 1978).

Assay [1] has as its system collagen-induced blood-platelet aggregation. The assay can be described thus: Collagen-induced blood-platelet aggregation. The format is in vivo, Wistar rats. As to conditions: rats, 100 mg/kg orally, 3 hours after treatment, collagen (bovine tendon extract), with respect to control group; for inhibition at 100 mg/kg: Rattus norvegicus, po, read-out: Percent inhibition of blood-platelet aggregation, Collagen. As to the method:
(§1) Blood is taken from the jugular vein of Wistar rats. From this citrated blood, and after centrifugation, is reconstituted a plasma containing 600,000 ± 20,000 blood-platelets per ml which is used in all aggregation determinations.
(§2) 0.4 ml plasma is placed in a siliconized tube provided with a magnet bar, also siliconized. The tube is introduced into an aggregometer coupled with an apparatus for recording optical density variations. When light transmission has reached a stable value, 0.5 ml of a solution containing 10 μM A.D.P. (Adenosine-Di-Phosphate) is introduced into the tube.
(§3) Blood-platelet aggregation causes an increase of light transmission followed by a decrease subsequent to the deaggregation phase.
(§4) The maximal optical density variation thus determined characterizes the intensity of the aggregation.
The A.D.P. solution is substituted with a collagen solution (bovine tendon extract).
(§5) Different groups of 20 rats are used, each group being orally administered a test derivative at a dosage of 100 mg/kg.

Assay [2] concerns A.D.P.-induced blood-platelet aggregation. The assay can be described thus: A.D.P.-induced blood-platelet aggregation. Format: in vivo, Wistar rats. To be noted: rats, 100 mg/kg orally, 3 hours after treatment, 10 μM A.D.P. solution, with respect to control group; for inhibition at 100 mg/kg: Rattus norvegicus, po, read-out: Percent inhibition of blood-platelet aggregation, A.D.P. The method, then:
as §1, §2, §3, §4, §5

For assay [3], the system named is ovalbumen-induced systemic edema. The assay can be described thus: Ovalbumen-induced systemic edema method. Format: in vivo. As to conditions: rats, 100 mg/kg orally 1 hour before and with ovalbumen; for inhibition in vivo at 100 mg/kg: Rattus norvegicus, po. The method, then: (b) Ovalbumen-induced systemic edema method
Simultaneous injection of 1 ml ovalbumen and 0.5 ml of a 1% aqueous Evans Blue solution is effected in rats. On the other hand, the animals of the treated group are administered orally 100 mg/kg of the test derivative one hour prior to ovalbumen administration and simultaneously with said administration. The intensity of the phenomenon thus induced is scored according to a scale from 1 to 5 depending on the progress of the inflammatory syndrome. The mean intensity of the edem and the percent decrease of the edema reaction with respect to the control group are thus determined as a function of time.

The test system of assay [4] is carrageenin-induced localized edema. The assay can be described thus: Carrageenin-induced localized edema method. Format: in vivo. To be noted: rats, 100 mg/kg orally at -1, 0, 1 and 2.5 hours; for inhibition in vivo at 100 mg/kg: Rattus norvegicus, po. As to the method: (a) Carrageenin-induced localized edema method
0.1 ml of a 1% carrageenin solution is injected in the metatarsal flexor muscles of the right hind limb of rats at time 0. The animals of the treated group are additionally orally administered 100 mg/kg of the test derivative, respectively one hour prior to injection of the phlogogenic agent, simultaneously with said injection, and then 1 hour and 2.5 hours thereafter. The determinations effected by means of a ROCH micrometer at times 0, 1 hour, 2 hours, 3 hours and 5 hours after carrageenin administration make it possible to determine, as a function of time, the percent anti-inflammatory activity with respect to the reference group.
Background: Carrageenan injected into the paw causes an acute inflammation.

Setting [5] is: 2 hours after ovalbumen, read-out: Percent anti-inflammatory activity after 2 hours.
Setting [6] is: 3 hours after ovalbumen, read-out: Percent anti-inflammatory activity after 3 hours.
The mark [7] stands for this setting: 1 hour after carrageenin, read-out: Percent anti-inflammatory activity after 1 hour.
Setting [8] is: 2 hours after carrageenin, read-out: Percent anti-inflammatory activity after 2 hours.
The mark [9] stands for this setting: 3 hours after carrageenin, read-out: Percent anti-inflammatory activity after 3 hours.
[10] abbreviates: 5 hours after carrageenin, read-out: Percent anti-inflammatory activity after 5 hours.

Usually inhibition stands for the drop in the measured response relative to a control, in per cent.

Where two headings read alike, the source gives them in different places.

For the compound `O=[N+]([O-])c1ccc(CN2Cc3sccc3C(c3ccccc3)C2)cc1` (stereo not drawn) [derivative n°17, 6-p.Nitrobenzyl-4-phenyl-4,5,6,7-tetrahydro-thieno[2,3-c]pyridine], the inhibition at 100 mg/kg in assay [1] turned out to be 95%; in assay [2], 63.9%. The inhibition in vivo at 100 mg/kg in assay [3] (setting [5]) was 43%; in assay [3] (setting [6]), 51%; in assay [4] (setting [7]), 42%; in assay [4] (setting [8]), 50%; in assay [4] (setting [9]), 54%; in assay [4] (setting [10]), 58%.

Consider `Cc1ccc(N2Cc3sccc3C(c3ccccc3)C2)cc1` (stereo not drawn) [derivative n°18, 4-Phenyl-6-p.tolyl-4,5,6,7-tetrahydro-thieno[2,3-c]pyridine], for which the “Percent inhibition of blood-platelet aggregation, Collagen” value in assay [1] was 93.5%. In addition, the “Percent inhibition of blood-platelet aggregation, A.D.P.” value in assay [2] was 62.5%. In addition, the “Percent anti-inflammatory activity after 2 hours” value in assay [3] (2 hours after ovalbumen) came to 47%; in assay [4] (2 hours after carrageenin), 48%. Besides, the “Percent anti-inflammatory activity after 3 hours” value in assay [3] (3 hours after ovalbumen) came to 56%; in assay [4] (3 hours after carrageenin) it was 53%. For the same compound, the “Percent anti-inflammatory activity after 1 hour” value in assay [4] (1 hour after carrageenin) worked out at 40%. Further, in assay [4] (5 hours after carrageenin), the “Percent anti-inflammatory activity after 5 hours” value is on record as 56%.

As to `Clc1ccccc1CN1Cc2ccsc2C(c2ccccc2)C1` (stereo not drawn) [derivative n°19, 5-o.Chlorobenzyl-7-phenyl-4,5,6,7-tetrahydro-thieno[3,2-c]pyridine], the results for the inhibition at 100 mg/kg in assay [1] and in assay [2] were 93.7% and 62.3%, respectively. Moreover, the inhibition in vivo at 100 mg/kg in assay [3] (setting [5]) worked out at 49%; in assay [3] (setting [6]), 57%; in assay [4] (setting [7]), 47%; in assay [4] (setting [8]), 53%; in assay [4] (setting [9]), 54%; in assay [4] (setting [10]) it was 56%.

Regarding `c1ccc(CCN2Cc3ccsc3C(c3ccccc3)C2)cc1` (stereo not drawn) [derivative n°20, 5-Phenethyl-7-phenyl-4,5,6,7-tetrahydro-thieno[3,2-c]pyridine], the figures for the inhibition at 100 mg/kg in assay [1] and in assay [2] were 94.2% and 63.6%, respectively. Besides, the inhibition in vivo at 100 mg/kg in assay [3] (setting [5]) is 53%; in assay [3] (setting [6]), 61%; in assay [4] (setting [7]), 43%; in assay [4] (setting [8]) it was 48%; in assay [4] (setting [9]), 52%; in assay [4] (setting [10]) it was 55%.

For `CCCCN1Cc2ccsc2C(c2ccccc2)C1` (stereo not drawn) [derivative n°21, 5-Butyl-7-phenyl-4,5,6,7-tetrahydro-thieno[3,2-c]pyridine], the inhibition at 100 mg/kg in assay [1] came out at 94%; in assay [2], 62.2%. Besides, the inhibition in vivo at 100 mg/kg in assay [3] (setting [5]) came out at 51%; in assay [3] (setting [6]), 57%; in assay [4] (setting [7]), 38%; in assay [4] (setting [8]) it was 44%; in assay [4] (setting [9]), 46%; in assay [4] (setting [10]), 49%.

With `CC1C(c2ccccc2)c2sccc2CN1Cc1ccc([N+](=O)[O-])cc1` (stereo not drawn) [derivative n°22, 6-Methyl-5-p.nitrobenzyl-7-phenyl-4,5,6,7-tetrahydro-thieno[3,2-c]pyridine], the results for the inhibition at 100 mg/kg in assay [1] and in assay [2] were 94.6% and 63.4%, respectively. Moreover, the inhibition in vivo at 100 mg/kg amounted to 50% in assay [3] (setting [5]); 57% in assay [3] (setting [6]); 41% in assay [4] (setting [7]); 49% in assay [4] (setting [8]); 53% in assay [4] (setting [9]); 56% in assay [4] (setting [10]).

On to `CC1C(c2ccccc2)c2sccc2CN1Cc1ccccc1Cl` (stereo not drawn) [derivative n°23, 5-o.Chlorobenzyl-6-methyl-7-phenyl-4,5,6,7-tetrahydro-thieno[3,2-c]pyridine], for which the inhibition at 100 mg/kg is 94.5% in assay [1] and 64.8% in assay [2]. For the same compound, the inhibition in vivo at 100 mg/kg in assay [3] (setting [5]) worked out at 47%; in assay [3] (setting [6]), 54%; in assay [4] (setting [7]) it was 39%; in assay [4] (setting [8]), 44%; in assay [4] (setting [9]), 48%; in assay [4] (setting [10]), 52%.

`c1ccc(CN2Cc3ccsc3C(c3ccccc3)C2)cc1` (stereo not drawn) [derivative n°24, 5-Benzyl-7-phenyl-4,5,6,7-tetrahydro-thieno[3,2-c]pyridine]: the inhibition at 100 mg/kg in assay [1] was 93%; in assay [2], 62.6%. Further, the inhibition in vivo at 100 mg/kg in assay [3] (setting [5]) is 42%; in assay [3] (setting [6]) it was 47%; in assay [4] (setting [7]), 41%; in assay [4] (setting [8]), 47%; in assay [4] (setting [9]), 50%; in assay [4] (setting [10]), 53%.

In the case of `c1ccc(CCN2Cc3sccc3C(c3ccccc3)C2)cc1` (stereo not drawn) [derivative n°25, 6-Phenethyl-4-phenyl-4,5,6,7-tetrahydro-thieno[2,3-c]pyridine], the inhibition at 100 mg/kg in assay [1] worked out at 93.8%; in assay [2], 64.1%. For the same compound, the inhibition in vivo at 100 mg/kg in assay [3] (setting [5]) came out at 44%; in assay [3] (setting [6]) it was 51%; in assay [4] (setting [7]), 47%; in assay [4] (setting [8]) it was 52%; in assay [4] (setting [9]), 56%; in assay [4] (setting [10]) it was 60%.

For the compound `N#Cc1ccccc1CN1Cc2ccsc2C(c2ccccc2)C1` (stereo not drawn) [derivative n°26], the inhibition at 100 mg/kg worked out at 90.2% in assay [1] and 60.9% in assay [2]. For the same compound, the inhibition in vivo at 100 mg/kg in assay [3] (setting [5]) worked out at 48%; in assay [3] (setting [6]), 54%; in assay [4] (setting [7]), 44%; in assay [4] (setting [8]), 49%; in assay [4] (setting [9]), 52%; in assay [4] (setting [10]) it was 56%.

`COc1ccc(CN2Cc3ccsc3C(c3ccccc3)C2)cc1` (stereo not drawn) [derivative n°27, 5-p.Methoxybenzyl-7-phenyl-4,5,6,7-tetrahydro-thieno[3,2-c]pyridine]: the inhibition at 100 mg/kg in assay [1] came to 92.4%; in assay [2] it was 63%. For the same compound, the inhibition in vivo at 100 mg/kg in assay [3] (setting [5]) turned out to be 51%; in assay [3] (setting [6]), 56%; in assay [4] (setting [7]) it was 38%; in assay [4] (setting [8]) it was 45%; in assay [4] (setting [9]), 49%; in assay [4] (setting [10]) it was 52%.

In the case of `COC(=O)c1ccccc1CN1Cc2ccsc2C(c2ccccc2)C1` (stereo not drawn) [derivative n°28, 5-o.Methoxycarbonylbenzyl-7-phenyl-4,5,6,7-tetrahydro-thieno[3,2-c]pyridine], the inhibition at 100 mg/kg in assay [1] turned out to be 92.2%; in assay [2], 62.3%. Further, the inhibition in vivo at 100 mg/kg is 45% in assay [3] (setting [5]); 52% in assay [3] (setting [6]); 41% in assay [4] (setting [7]); 47% in assay [4] (setting [8]); 51% in assay [4] (setting [9]); 53% in assay [4] (setting [10]).
